The record followed here is paper PMC10305039, “Triphenylphosphonium (TPP)-Conjugated Quinolone Analogs Displayed Significantly Enhanced Fungicidal Activity Superior to Its Parent Molecule” (Journal of Fungi, 2023).

As usually defined, the IC50 is the midpoint of a concentration-inhibition curve.

This assay relates to T1, cytochrome bc1 complex (complex III) of P. capsici.
T1 construct: gene cob; native complex III in freeze-thawed hyphal mitochondria isolated by differential centrifugation; not purified; with Cytochrome c1, heme protein, mitochondrial; Cytochrome b-c1 complex subunit Rieske, mitochondrial
Briefly: complex III activity assay kit (Genmed GMS50009), hyphal mitochondria. Format: biochemical, Phytophthora capsici. To be noted: freeze-thawed mitochondria; Qi site proposed, not shown.

Take `Cc1cc(=O)c2ccccc2n1OC(=O)CCCCCCCCCC[P+](c1ccccc1)(c1ccccc1)c1ccccc1` [mitoQNO11]: the IC50 was determined as 3.33 µM.
